Several values for one entry are separate records, joined by “and”; a condition that tells them apart may be missing. Equal entries are not always repeated.
Experiments:
[1] = molecular target: T1, UGT enzymes of human liver microsomes (Homo sapiens, UniProt P16662); assay: Inhibition of zidovudine glucuronidation in human liver microsomes; format: biochemical; conditions: liver lot 062101
T1 construct: residual metabolism (percentage of control), zidovudine glucuronidation; other: liver lot 062101; residual metabolism (percentage of control), zidovudine glucuronidation; residual metabolism (percentage of control)
T1 sequence (P16662 1-529): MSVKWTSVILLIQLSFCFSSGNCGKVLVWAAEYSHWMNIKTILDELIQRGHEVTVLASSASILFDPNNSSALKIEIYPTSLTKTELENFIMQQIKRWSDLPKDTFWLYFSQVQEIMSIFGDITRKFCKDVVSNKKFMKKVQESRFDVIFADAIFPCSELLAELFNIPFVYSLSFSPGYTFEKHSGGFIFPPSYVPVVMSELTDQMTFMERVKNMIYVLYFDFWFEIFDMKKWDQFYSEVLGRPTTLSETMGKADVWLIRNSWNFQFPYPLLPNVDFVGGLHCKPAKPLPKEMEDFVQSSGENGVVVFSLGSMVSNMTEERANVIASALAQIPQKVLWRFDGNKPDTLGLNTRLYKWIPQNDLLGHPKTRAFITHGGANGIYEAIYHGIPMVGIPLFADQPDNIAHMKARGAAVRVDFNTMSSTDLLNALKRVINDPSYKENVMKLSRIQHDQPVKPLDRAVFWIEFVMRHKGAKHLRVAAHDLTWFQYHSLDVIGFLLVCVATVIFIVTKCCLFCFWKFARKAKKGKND
Experimental: Compounds were eluted using a binary solvent gradient system where solvent A was dilute phosphoric acid (pH 3) and solvent B was acetonitrile.
Standardized incubations utilized 500 μM zidovudine substrate, 1 mg/ml microsomal protein, 5 mM UDPGA and a 30 min incubation time. […] Int.

[2] = system: T2, UGT enzymes of human liver microsomes; assay: Inhibition of labetalol glucuronidation (LG1, LG2) in human liver microsomes; format: biochemical; conditions: labetalol 50 μM
T2 construct: residual metabolism (percentage of control), labetalol LG1; other: labetalol 50 μM; residual metabolism (percentage of control), labetalol LG1; residual metabolism (percentage of control), labetalol LG2; inhi

[3] = molecular target: T3, UGT1A8 (Homo sapiens, UniProt Q9HAW9); assay: Inhibition of raloxifene glucuronidation by recombinant UGT1A8 Supersomes; conditions: human, Supersomes with recombinant human UGT1A8, pH 7.5, probe raloxifene 50 μM, inhibitor 10 μM
T3 sequence (Q9HAW9 26-530): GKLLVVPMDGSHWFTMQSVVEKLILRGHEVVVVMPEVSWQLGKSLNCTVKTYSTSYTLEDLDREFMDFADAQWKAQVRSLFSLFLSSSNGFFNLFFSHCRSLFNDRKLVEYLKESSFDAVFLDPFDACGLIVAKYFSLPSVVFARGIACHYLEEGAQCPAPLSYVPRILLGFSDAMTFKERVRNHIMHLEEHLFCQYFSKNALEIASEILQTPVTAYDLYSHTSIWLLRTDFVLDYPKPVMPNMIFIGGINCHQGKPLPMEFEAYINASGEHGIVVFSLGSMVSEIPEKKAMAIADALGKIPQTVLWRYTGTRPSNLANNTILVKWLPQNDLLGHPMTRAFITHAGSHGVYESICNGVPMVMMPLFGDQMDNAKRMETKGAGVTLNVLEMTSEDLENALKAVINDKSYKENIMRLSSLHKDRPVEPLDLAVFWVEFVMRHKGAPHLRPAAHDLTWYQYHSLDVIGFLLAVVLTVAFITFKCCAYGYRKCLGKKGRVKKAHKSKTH
Experimental: (§1) Compounds were eluted using a binary solvent gradient system. Solvent A was water brought to pH 8 with NH4OH. Solvent B was methanol. Solvent flow rate was 1 ml/min and the column temperature was maintained at 50° C. Detection was at 280 nm. […] The system was then returned to the initial conditions and equilibrated for 3 min.

[4] = system: T4, UGT enzymes of human liver microsomes; assay: Kinetic and Ki studies of inhibitors of 7-HFC glucuronidation in human liver microsomes; format: biochemical; conditions: 7-HFC 20-500 μM
T4 construct: percentage of control metabolism, 7-HFC glucuronidation; percentage of control metabolism, 7-HFC glucuronidation

[5] = molecular target: T5, UGT1A1 (Homo sapiens, UniProt P22309); assay: Inhibition of raloxifene glucuronidation by recombinant UGT1A1 Supersomes; conditions: human; for activity at 15 min, 2 μM: inhibitor 2 μM; for activity at 15 min, 5 µM: inhibitor 5 μM; for activity at 15 min, 10 µM: inhibitor 10 μM; for activity at 15 min, 25 µM: inhibitor 25 μM; for activity at 15 min, 50 µM: inhibitor 50 μM
T5 sequence (P22309 26-533): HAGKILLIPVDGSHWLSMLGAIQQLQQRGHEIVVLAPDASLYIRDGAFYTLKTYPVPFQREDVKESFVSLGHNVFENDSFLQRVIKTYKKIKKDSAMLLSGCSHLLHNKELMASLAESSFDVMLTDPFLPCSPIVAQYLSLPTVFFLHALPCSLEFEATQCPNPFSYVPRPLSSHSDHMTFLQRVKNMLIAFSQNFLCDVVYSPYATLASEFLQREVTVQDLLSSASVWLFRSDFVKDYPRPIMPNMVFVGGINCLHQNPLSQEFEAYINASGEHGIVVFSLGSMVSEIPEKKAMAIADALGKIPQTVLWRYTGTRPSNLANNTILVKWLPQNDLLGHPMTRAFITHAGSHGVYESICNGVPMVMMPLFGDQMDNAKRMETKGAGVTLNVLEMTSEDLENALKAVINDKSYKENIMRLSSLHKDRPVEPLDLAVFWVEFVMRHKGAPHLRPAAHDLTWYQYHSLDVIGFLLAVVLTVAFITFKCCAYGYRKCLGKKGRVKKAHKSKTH
Experimental: as §1

[6] = system: T6, UGT enzymes of human liver microsomes; assay: Inhibition of 2ME2 glucuronidation (MG1, MG2) in human liver microsomes; format: biochemical; conditions: liver 062101, 2ME2 50 μM
T6 construct: other: liver 062101
From the text: Compounds were eluted using a binary solvent gradient system where solvent A was dilute phosphoric acid (pH 3) and solvent B was 80:20 acetonitrile-methanol. […] Detection was at 280 nm.

[7] = Supersomes with recombinant human UGT1A1, pH 7.5, probe raloxifene 50 μM, formation of glucuronide G1, % of control metabolism, raloxifene G1, UGT1A1
[8] = Supersomes with recombinant human UGT1A1, pH 7.5, probe raloxifene 50 μM, formation of glucuronide G1, Inhibition of raloxifene glucuronidation, G1, UGT1A1, G1, raloxifene 50 μM, 250 μg/ml Supersomes, 1 mM UDPGA, 15 min
[9] = Supersomes with recombinant human UGT1A1, pH 7.5, probe raloxifene 50 μM, formation of glucuronide G2, % of control metabolism, raloxifene G2, UGT1A1
[10] = recombinant UGT1A1 Supersomes, pH 7.5, probe raloxifene 50 μM (formation of glucuronide G1), Inhibition of raloxifene glucuronidation, G1, UGT1A1, G1, raloxifene 50 μM, 250 μg/ml Supersomes, 1 mM UDPGA, 15 min
[11] = recombinant UGT1A1 Supersomes, pH 7.5, probe raloxifene 50 μM (formation of glucuronide G2), Inhibition of raloxifene glucuronidation, G2, UGT1A1, G2, raloxifene 50 μM, 250 μg/ml Supersomes, 1 mM UDPGA, 15 min

O=C(OC[C@H]1O[C@@H](OC(=O)c2cc(O)c(O)c(OC(=O)c3cc(O)c(O)c(O)c3)c2)[C@H](OC(=O)c2cc(O)c(O)c(OC(=O)c3cc(O)c(O)c(O)c3)c2)[C@@H](OC(=O)c2cc(O)c(O)c(OC(=O)c3cc(O)c(O)c(O)c3)c2)[C@@H]1OC(=O)c1cc(O)c(O)c(OC(=O)c2cc(O)c(O)c(O)c2)c1)c1cc(O)c(O)c(OC(=O)c2cc(O)c(O)c(O)c2)c1 [Tannic acid]
residual metabolism (percentage of control), zidovudine glucuronidation ([1]; inhibitor 50 μM): 54 (2) % and 50 (4) % | residual metabolism (percentage of control), zidovudine glucuronidation ([1]; inhibitor 100 μM): 42 (2) % and 37 (4) % | residual metabolism (percentage of control), zidovudine glucuronidation ([1]; inhibitor 200 μM): 20 (2) % | residual metabolism (percentage of control), labetalol LG1 ([2]; inhibitor 50 μM): 42 (1) % | residual metabolism (percentage of control), labetalol LG2 ([2]; inhibitor 50 μM): 37 (2) % | residual metabolism (percentage of control), labetalol LG1 ([2]; inhibitor 100 μM): 19 (1) % and 21 (1) % | residual metabolism (percentage of control), labetalol LG2 ([2]; inhibitor 100 μM): 9 (0) % and 13 (3) % | activity at 15 min, 10 µM ([3]; formation of glucuronide G1, % of control metabolism, raloxifene G1, UGT1A8): 73% | activity at 15 min, 10 µM ([3]; formation of glucuronide G2, % of control metabolism, raloxifene G2, UGT1A8): 75% | Vmax of 7-HFC glucuronidation (fit of the experiment with this inhibitor) [4]: 57 ± 3 nmol/min/mg | Km ([4]; read-out: Km of 7-HFC glucuronidation (fit of the experiment with this inhibitor)): 85 ± 7 µM | activity at 15 min ([5]; Supersomes with recombinant human UGT1A1, pH 7.5, probe raloxifene 50 μM, formation of glucuronide G1): 17% | activity at 15 min, 2 μM [5, 7]: 71% | activity at 15 min, 5 µM [5, 7]: 39% | activity at 15 min, 10 µM [5, 7]: 17% | activity at 15 min, 25 µM [5, 7]: 4% | activity at 15 min, 50 µM [5, 7]: 0.4% | activity at 15 min, 25 µM [5, 8]: 4% | activity at 15 min, 50 µM [5, 8]: 0.4% | activity at 15 min, 2 μM [5, 9]: 71% | activity at 15 min, 5 µM [5, 9]: 38% | activity at 15 min, 10 µM [5, 9]: 17% | activity at 15 min, 25 µM [5, 9]: 8% | activity at 15 min, 50 µM [5, 9]: 0.9% | activity at 15 min, 2 μM [5, 10]: 71% | activity at 15 min, 5 µM [5, 10]: 39% | activity at 15 min ([5]; recombinant UGT1A1 Supersomes, pH 7.5, probe raloxifene 50 μM (formation of glucuronide G2)): 17% | activity at 15 min, 2 μM [5, 11]: 71% | activity at 15 min, 5 µM [5, 11]: 38% | activity at 15 min, 25 µM [5, 11]: 8% | activity at 15 min, 50 µM [5, 11]: 0.9% | residual metabolism (% of control), 2ME2 MG1 ([6]; inhibitor 25 μM): 13 (1) % | residual metabolism (% of control), 2ME2 MG2 ([6]; inhibitor 25 μM): 49 (7) % | residual metabolism (% of control), 2ME2 MG1 ([6]; inhibitor 50 μM): <LOQ | residual metabolism (% of control), 2ME2 MG2 ([6]; inhibitor 50 μM): 28 (1) %

Reference: US20030215462A1, “Use of UGT inhibitors to increase bioavailability” (priority 2001, published 2003)
